Reference: US6034134A, “1-Amino-alkylcyclohexane NMDA receptor antagonists” (Merz + Co. GmbH & Co., priority 1998, dated 2000)
Like-named read-outs stand apart in the source and are kept apart here.

Legend:
[1] = system: NMDA receptor; assay: Patch clamp: NMDA-induced inward currents in cultured hippocampal neurones; type: cell-based, rat; conditions: read-out: Patch Clamp IC50
Description: Hippocampi were obtained from rat embryos (E20 to E21) and were then transferred to calcium and magnesium free Hank's buffered salt solution (Gibco) on ice. Cells were mechanically dissociated in 0.05% DNAase/0.3% ovomucoid (Sigma) following an 8 minute pre-incubation with 0.66% trypsin/0.1% DNAase (Sigma). The dissociated cells were then centrifuged at 18 ×g for 10 minutes, re-suspended in minimum essential medium (Gibco) and plated at a density of 150,000 cells cm^-2 onto poly-L-lysine (Sigma)-precoated plastic petri dishes (Falcon). The cells were nourished with NaHCO3 /HEPES-buffered minimum essential medium supplemented with 5% fetal calf serum and 5% horse serum (Gibco) and incubated at 37° C. with 5% CO2 at 95% humidity. […] Thereafter the medium was exchanged partially twice weekly.
Patch clamp recordings were made from these neurones with polished glass electrodes (4-6 m.OMEGA.) in the whole cell mode at room temperature (20-22° C.) with the aid of an EPC-7 amplifier (List). Test substances were applied by switching channels of a custom-made fast superfusion system with a common outflow (10-20 ms exchange times). The contents of the intracellular solution were as follows (mM): CsCl (120), TEACl (20), EGTA (10), MgCl2 (1), CaCl2 -(0.2), glucose (10), ATP(2), cAMP (0.25); pH was adjusted to 7.3 with CsOH or HC1. The extracellular solutions had the following basic composition (mM): NaCl (140), KCl (3), CaCl2 (0.2), glucose (10), HEPES (10), sucrose (4.5), tetrodotoxin (TTX 3*10^-4). Glycine (1 μM) was present in all solutions: a concentration sufficient to cause around 80-85% activation of glycineB receptors. Only results from stable cells were accepted for inclusion in the final analysis, i.e., following recovery of responses to NMDA by at least 75% of their depression by the antagonists tested.
IC50 s in patch clamp, excitotoxicity, and binding studies were calculated according to the four parameter logistic equation using the Grafit computer program (Erithacus Software, England). Ki value for binding studies were then determined according to Cheng and Prusoff. Binding values presented are means±SEM of 3-5 determinations (each performed in duplicate). […] Pearson product moment correlation analysis (Sigma Stat, Jandel Scientific) was used to compare in vitro potencies and in vivo anticonvulsant activity.

[2] = Maximal electroshock (MES)-induced convulsions in mice; type: in vivo; conditions: Mus musculus, ip, 0.5 h, mice, i.p., read-out: MES ED50
Description: (§1) NMR female mice (18-28 g) housed 5 per cage were used for the maximal electroshock (MES) and motor impairment tests. […] All compounds were dissolved in 0.9% saline.
(§2) The MES test was performed together with tests for myorelaxant action (traction reflex) and motor coordination (rotarod). For the traction reflex test mice were placed with their forepaws on a horizontal rod and were required to place all 4 paws on the wire within 10 seconds. To test ataxia (motor coordination) mice were placed on rotarod (5 rpm) and were required to remain on the rod for 1 minute. […] These tests were followed by MES (100 Hz, 0.5 second shock duration, 50 mA shock intensity, 0.9 ms impulse duration, Ugo Basile) applied through corneal electrodes. The presence of tonic convulsions was scored (tonic extension of hind paws with minimum angle to the body of 90°). The aim was to obtain ED50 s for all parameters scored (anticonvulsive activity and motor side effects) with use of the Litchfield Wilcoxon test for quantal dose responses. Division of the ED50 for side effects (ataxia or myorelaxation) by the ED50 for antagonism of electroshock convulsions was used as a therapeutic index (TI). […]

[3] = Traction reflex test (myorelaxant action) in mice, therapeutic index versus MES; type: in vivo; conditions: ED50 for traction reflex impairment divided by ED50 for MES; 30 min
Description: as §1, §2

[4] = Table 7, NMDA 200 μM with glycine 1 μM at -70 mV
[5] = Table 8, 95% confidence limits in parentheses

Row | SMILES | IC50 [1, 4] [µM] | IC50 ([1]; Table 9, NMDA-induced currents) [µM] | ED50 ([2]; Table 7, 30 min before) [mg/kg] | ED50 [2, 5] [mg/kg] | TI Tract [3]
1 | CCC[C@@H]1CC(C)(C)C[C@](C)(N)C1 (relative stereo) [Mrz 2/634] | 10.8 | 10.8 | > 30 | > 30 | –
2 | CC1(N)CCCCC1 [Mrz 2/641] | > 100 | > 100 | > 50 | > 50 | –
3 | CC1(C)CC(CN)CC(C)(C)C1.Cl [Mrz 2/580, 3,3,5,5-tetramethylcyclohexylmethylamine hydrochloride] | 12.9 | 12.9 | 27.3 | 27.3 | 1.6
4 | CCC[C@@H]1CCC[C@@](C)(N)C1 (relative stereo) [Mrz 2/627] | 210 | 150 | 43.9 | 43.9 | 0.8
5 | CCC1(C)CC(C)(C)CC(C)(N)C1 (centres unmarked) [Mrz 2/615, 1-amino-1,3,5,5-tetramethyl-3-ethylcyclohexane] | 2.9 | 2.9 | 6.1 | 6.1 | 2.5
6 | C[C@@H]1CCC[C@@](C)(N)C1 (relative stereo) [Mrz 2/625] | 245 | 245 | 130 | 130 | 0.5
7 | CC1(C)CC(N)CC(C)(C)C1 [Mrz 2/557] | 18.5 | 18.5 | 43.9 | 43.9 | 1.0
8 | CC[C@@H]1CC(C)(C)C[C@@](C)(N)C1 (relative stereo) [Mrz 2/633] | 13.9 | 13.9 | 8.78 | 8.78 | 2.4
9 | CCC[C@@H]1CC(C)(C)C[C@@](C)(N)C1 (relative stereo) [Mrz 2/635] | 21 | 21 | 31.6 | 31.6 | 1.3
10 | CCC1(N)CC(C)(C)CC(C)(C)C1 [Mrz 2/600, 1-amino-1-ethyl-3,3,5,5-tetramethylcyclohexane] | 3.7 | 3.49 | 22.6 | 22.6 | 0.6
11 | CCC[C@H]1CCC[C@@](C)(N)C1 (relative stereo) [Mrz 2/628] | 126 | 126 | 73.2 | 73.2 | 0.8
12 | CCC[C@@]1(C)C[C@H](C)C[C@@](C)(N)C1 (relative stereo) [Mrz 2/618] | 43.7 | 57.5 | 24 | 24 | 1.2
13 | CCC[C@]1(C)C[C@@H](C)C[C@@](C)(N)C1 (relative stereo) [Mrz 2/619] | 60.8 | 60.9 | 44.6 | 44.6 | 1.0
14 | CC[C@H]1CCC[C@@](C)(N)C1 (relative stereo) [Mrz 2/630] | > 100 | 100 | > 30 | > 30 | –
15 | C[C@@H]1CC(C)(C)C[C@@](C)(N)C1 (relative stereo) [Mrz 2/607] | 13.8 | 13.8 | 22.9 | 22.9 | 1.3
16 | C[C@H]1CCC[C@@](C)(N)C1 (relative stereo) [Mrz 2/631] | > 100 | > 100 | 30 | 30 | –
17 | CNC1(C)CC(C)(C)CC(C)(C)C1.Cl [Mrz 2/640, N,1,3,3,5,5-hexamethylcyclohexanamine hydrochloride] | 14.6 | 14.6 | 8.2 | 8.18 | 2.3
18 | CC[C@]1(C)C[C@@H](C)C[C@@](C)(N)C1 (relative stereo) [Mrz 2/624] | 31 | 31 | 47.2 | 47.2 | 0.9
19 | CC1(C)CC(CCN)CC(C)(C)C1 [Mrz 2/644] | 4.1 | 4.1 | 53 | 53 | 0.5
20 | CC[C@@H]1CCC[C@@](C)(N)C1 (relative stereo) [Mrz 2/629] | 219 | 219 | 58.5 | 58.5 | 0.9
21 | CCNC1(C)CC(C)(C)CC(C)(C)C1 [Mrz 2/639, N-ethyl-1-amino-1,3,3,5,5-pentamethylcyclohexane] | 7.4 | 7.4 | 5.5 | 5.87 | 2.6
22 | CC[C@@]1(C)C[C@H](C)C[C@@](C)(N)C1 (relative stereo) [Mrz 2/622] | 64.8 | 58.2 | 21 | 21 | 1.1
23 | CC[C@H]1CC(C)(C)C[C@@](C)(N)C1 (relative stereo) [Mrz 2/632] | 6.4 | 6.4 | 11 | 11 | 2.7
24 | CCC1(CC)CC(C)(C)CC(C)(N)C1 (centres unmarked) [Mrz 2/623, 1-amino-1,5,5-trimethyl-3,3-diethylcyclohexane] | 3.7 | 3.7 | 13.1 | 13.1 | 1.4
